Test results taken from PubChem BioAssay AID2060899 (Molecular Pharmacology Branch, DTP, NCI, 2025).

System: 565726-208-R1-J5-PDC complex spheroids, growth inhibition
Experiment: Anticancer human tumor 565726-208-R1-J5-PDC patient-derived pancreatic adenocarcinoma cell line growth inhibition [RAS]
Settings: for viability, T/C: stronger effect = lower value
Outline: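 Agents were tested in combination matrices in half-log decrements from a top concentration at or near clinical Cmax (10 microM if undetermined). Targets were multi-cell spheroids of tumour lines plus HUVEC and MSC stromal cells.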

[1] = curve of first compound, second compound 0.0316 µM
[2] = curve of first compound, second compound 0.1 µM
[3] = curve of first compound, second compound 0.316 µM
[4] = curve of first compound, second compound 1 µM
[5] = second compound 0.0316 µM, first compound 0.00316 µM
[6] = second compound 0.0316 µM, first compound 0.01 µM
[7] = second compound 0.0316 µM, first compound 0.0316 µM
[8] = second compound 0.0316 µM, first compound 0.1 µM
[9] = second compound 0.0316 µM, first compound 0.316 µM
[10] = second compound 0.0316 µM, first compound 1 µM
[11] = second compound 0.1 µM, first compound 0.00316 µM
[12] = second compound 0.1 µM, first compound 0.01 µM
[13] = second compound 0.1 µM, first compound 0.0316 µM
[14] = second compound 0.1 µM, first compound 0.1 µM
[15] = second compound 0.1 µM, first compound 0.316 µM
[16] = second compound 0.1 µM, first compound 1 µM
[17] = second compound 0.316 µM, first compound 0.00316 µM
[18] = second compound 0.316 µM, first compound 0.01 µM
[19] = second compound 0.316 µM, first compound 0.0316 µM
[20] = second compound 0.316 µM, first compound 0.1 µM
[21] = second compound 0.316 µM, first compound 0.316 µM
[22] = second compound 0.316 µM, first compound 1 µM
[23] = second compound 1 µM, first compound 0.00316 µM
[24] = second compound 1 µM, first compound 0.01 µM
[25] = second compound 1 µM, first compound 0.0316 µM
[26] = second compound 1 µM, first compound 0.1 µM
[27] = second compound 1 µM, first compound 0.316 µM
[28] = second compound 1 µM, first compound 1 µM
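Further: spheroids exposed to compounds for seven days before readout.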
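Wherever viability, T/C is given: 100% = DMSO vehicle control viability.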

CCN1CCN(Cc2ccc(Nc3ncc(F)c(-c4cc(F)c5nc(C)n(C(C)C)c5c4)n3)nc2)CC1 + C=CC(=O)N1CCN(c2nc(OCC3CCCN3C)nc3c(F)c(-c4nc(N)cc(C)c4C(F)(F)F)c(Cl)cc23)C(C)C1
IC50 (curve of first compound, second compound 0.00316 µM): > 1000 nM | IC50 (curve of first compound, second compound 0.01 µM): > 1000 nM | IC50 [1]: > 1000 nM | IC50 [2]: > 1000 nM | IC50 [3]: > 1000 nM | IC50 [4]: > 1000 nM | viability, T/C (second compound 0.00316 µM, first compound 0.00316 µM): 92.8% | viability, T/C (second compound 0.00316 µM, first compound 0.01 µM): 137% | viability, T/C (second compound 0.00316 µM, first compound 0.0316 µM): 93.5% | viability, T/C (second compound 0.00316 µM, first compound 0.1 µM): 72.2% | viability, T/C (second compound 0.00316 µM, first compound 0.316 µM): 82.8% | viability, T/C (second compound 0.00316 µM, first compound 1 µM): 119% | viability, T/C (second compound 0.01 µM, first compound 0.00316 µM): 101% | viability, T/C (second compound 0.01 µM, first compound 0.01 µM): 134% | viability, T/C (second compound 0.01 µM, first compound 0.0316 µM): 98.2% | viability, T/C (second compound 0.01 µM, first compound 0.1 µM): 63% | viability, T/C (second compound 0.01 µM, first compound 0.316 µM): 79.2% | viability, T/C (second compound 0.01 µM, first compound 1 µM): 119% | viability, T/C [5]: 163% | viability, T/C [6]: 144% | viability, T/C [7]: 109% | viability, T/C [8]: 77.1% | viability, T/C [9]: 61% | viability, T/C [10]: 103% | viability, T/C [11]: 135% | viability, T/C [12]: 124% | viability, T/C [13]: 83.1% | viability, T/C [14]: 87.4% | viability, T/C [15]: 61.1% | viability, T/C [16]: 118% | viability, T/C [17]: 141% | viability, T/C [18]: 136% | viability, T/C [19]: 85% | viability, T/C [20]: 100% | viability, T/C [21]: 58.8% | viability, T/C [22]: 116% | viability, T/C [23]: 117% | viability, T/C [24]: 129% | viability, T/C [25]: 89.5% | viability, T/C [26]: 66% | viability, T/C [27]: 78.2% | viability, T/C [28]: 110%

C=CC(=O)Nc1cc(Nc2nccc(-c3cn(C)c4ccccc34)n2)c(OC)cc1N(C)CCN(C)C + C#Cc1c(F)ccc2cc(O)cc(-c3ncc4c(N5CC6CCC(C5)N6)nc(OCC56CCCN5CC(F)C6)nc4c3F)c12
IC50 [1]: > 1000 nM | IC50 [2]: > 1000 nM | IC50 [3]: > 1000 nM | IC50 [4]: > 1000 nM | IC50 (curve of first compound, second compound 3.16 µM): > 1000 nM | IC50 (curve of first compound, second compound 10 µM): 70.9 nM | viability, T/C [5]: 120% | viability, T/C [6]: 139% | viability, T/C [7]: 96.1% | viability, T/C [8]: 101% | viability, T/C [9]: 130% | viability, T/C [10]: 103% | viability, T/C [11]: 113% | viability, T/C [12]: 144% | viability, T/C [13]: 102% | viability, T/C [14]: 92.3% | viability, T/C [15]: 121% | viability, T/C [16]: 97.5% | viability, T/C [17]: 127% | viability, T/C [18]: 130% | viability, T/C [19]: 88.9% | viability, T/C [20]: 77.6% | viability, T/C [21]: 113% | viability, T/C [22]: 98.1% | viability, T/C [23]: 138% | viability, T/C [24]: 110% | viability, T/C [25]: 76.7% | viability, T/C [26]: 68.1% | viability, T/C [27]: 87.1% | viability, T/C [28]: 84.7% | viability, T/C (second compound 3.16 µM, first compound 0.00316 µM): 120% | viability, T/C (second compound 3.16 µM, first compound 0.01 µM): 85.2% | viability, T/C (second compound 3.16 µM, first compound 0.0316 µM): 65% | viability, T/C (second compound 3.16 µM, first compound 0.1 µM): 51.2% | viability, T/C (second compound 3.16 µM, first compound 0.316 µM): 72% | viability, T/C (second compound 3.16 µM, first compound 1 µM): 74% | viability, T/C (second compound 10 µM, first compound 0.00316 µM): 89.4% | viability, T/C (second compound 10 µM, first compound 0.01 µM): 86.5% | viability, T/C (second compound 10 µM, first compound 0.0316 µM): 64.1% | viability, T/C (second compound 10 µM, first compound 0.1 µM): 41.2% | viability, T/C (second compound 10 µM, first compound 0.316 µM): 50.7% | viability, T/C (second compound 10 µM, first compound 1 µM): 40.1%

Nc1ccn(C2OC(CO)C(O)C2(F)F)c(=O)n1 (stereo unspecified)
viability, T/C (compound 0.00316 µM): 108% [middle of 4 runs] | viability, T/C (compound 0.0316 µM): 70.9% [middle of 4 runs] | viability, T/C (compound 0.1 µM): 62.3% [middle of 4 runs] | viability, T/C (compound 1 µM): 38.8% [middle of 4 runs]

CCC(CC)c1cc(NC2CCC(N)C2)n2nccc2n1 (stereo unspecified) + CCn1c(-c2cc(N3CCN(C)CC3)cnc2C(C)OC)c2c3cc(ccc31)-c1csc(n1)CC(NC(=O)C1CC1C)C(=O)N1CCCC(N1)C(=O)OCC(C)(C)C2
IC50 (curve of first compound, second compound 0.000949 µM): 507 nM | IC50 (curve of first compound, second compound 0.003 µM): 340 nM | IC50 (curve of first compound, second compound 0.00949 µM): < 31.6 nM | IC50 (curve of first compound, second compound 0.03 µM): < 31.6 nM | IC50 (curve of first compound, second compound 0.0949 µM): < 31.6 nM | IC50 (curve of first compound, second compound 0.3 µM): < 31.6 nM | viability, T/C (second compound 0.000949 µM, first compound 0.0316 µM): 61.1% | viability, T/C (second compound 0.000949 µM, first compound 0.1 µM): 60% | viability, T/C (second compound 0.000949 µM, first compound 0.316 µM): 65.7% | viability, T/C (second compound 0.000949 µM, first compound 1 µM): 32.4% | viability, T/C (second compound 0.000949 µM, first compound 3.16 µM): 0.45% | viability, T/C (second compound 0.000949 µM, first compound 10 µM): 1.67% | viability, T/C (second compound 0.003 µM, first compound 0.0316 µM): 56.6% | viability, T/C (second compound 0.003 µM, first compound 0.1 µM): 51.5% | viability, T/C (second compound 0.003 µM, first compound 0.316 µM): 50% | viability, T/C (second compound 0.003 µM, first compound 1 µM): 27.7% | viability, T/C (second compound 0.003 µM, first compound 3.16 µM): 0.47% | viability, T/C (second compound 0.003 µM, first compound 10 µM): 1.59% | viability, T/C (second compound 0.00949 µM, first compound 0.0316 µM): 47.2% | viability, T/C (second compound 0.00949 µM, first compound 0.1 µM): 38.9% | viability, T/C (second compound 0.00949 µM, first compound 0.316 µM): 34% | viability, T/C (second compound 0.00949 µM, first compound 1 µM): 24.6% | viability, T/C (second compound 0.00949 µM, first compound 3.16 µM): 0.24% | viability, T/C (second compound 0.00949 µM, first compound 10 µM): 2.02% | viability, T/C (second compound 0.03 µM, first compound 0.0316 µM): 31.3% | viability, T/C (second compound 0.03 µM, first compound 0.1 µM): 36.5% | viability, T/C (second compound 0.03 µM, first compound 0.316 µM): 31% | viability, T/C (second compound 0.03 µM, first compound 1 µM): 20.2% | viability, T/C (second compound 0.03 µM, first compound 3.16 µM): 0.4% | viability, T/C (second compound 0.03 µM, first compound 10 µM): 1.85% | viability, T/C (second compound 0.0949 µM, first compound 0.0316 µM): 27.4% | viability, T/C (second compound 0.0949 µM, first compound 0.1 µM): 27% | viability, T/C (second compound 0.0949 µM, first compound 0.316 µM): 24.2% | viability, T/C (second compound 0.0949 µM, first compound 1 µM): 16.8% | viability, T/C (second compound 0.0949 µM, first compound 3.16 µM): 0.44% | viability, T/C (second compound 0.0949 µM, first compound 10 µM): 1.98% | viability, T/C (second compound 0.3 µM, first compound 0.0316 µM): 23.5% | viability, T/C (second compound 0.3 µM, first compound 0.1 µM): 27.1% | viability, T/C (second compound 0.3 µM, first compound 0.316 µM): 23.1% | viability, T/C (second compound 0.3 µM, first compound 1 µM): 13.9% | viability, T/C (second compound 0.3 µM, first compound 3.16 µM): 0.5% | viability, T/C (second compound 0.3 µM, first compound 10 µM): 1.9%

CC1(C)CCC(Nc2ncc(C(F)(F)F)c(-c3c[nH]c4c(P(C)(C)=O)c(C#N)ccc34)n2)CN1 (stereo unspecified)
viability, T/C (compound 0.003 µM): 51.3% [middle of 4 runs] | viability, T/C (compound 0.00949 µM): 37.9% [middle of 4 runs] | viability, T/C (compound 0.03 µM): 31.7% [middle of 4 runs] | viability, T/C (compound 0.0949 µM): 36.9% [middle of 4 runs] | viability, T/C (compound 0.3 µM): 34.4% [middle of 4 runs] | IC50 (curve of compound): 3.92 nM [middle of 4 runs]
